Results on 25 compounds are retold here after PubChem BioAssay (NCI).

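Interpolation was linear, between the two tested concentrations surrounding the appropriate level; five concentrations were tested over 48 hours in 96-well plates. GI50 marks 50% less growth. TGI marks complete inhibition of growth.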 Where only a bound is given, the exact number is not on record here.

Holding throughout (experiment): NCI-60 cell line screen, 48 h
The subject of assay [1] is A498 renal.
In assay [2] the test system is ACHN renal.
The subject of assay [3] is HCT-116 colon.
For assay [4], the system named is M14 melanoma.
Assay [5] concerns NCI-H226 lung.
Assay [6] relates to NCI-H460 lung.
Assay [7] relates to OVCAR-3 ovarian.
The test system of assay [8] is OVCAR-5 ovarian.
The test system of assay [9] is SF-268 CNS.
Assay [10] deals with SR leukemia.

As to `CC12CC(OC(=O)[C@]1(C)O)[C@@H]([C@]1(O)CC[C@H]3[C@@H]4C[C@H]5O[C@]56[C@@H](O)C=CC(=O)[C@]6(C)[C@H]4CC[C@@]31C)C2` (some centres not stated), the TGI was 33.2 µM in [1]; 22.9 µM in [2]; 13.2 µM in [3]; 24.9 µM in assay [4]; more than 100 µM in assay [5]; 32.3 µM in [6]. In addition, the TGI in [7] worked out at 7.72 µM; in assay [8], 25.2 µM; in assay [9], 30.2 µM.
`C/C=C/[C@@H]1OC(=O)C2=C[C@@H](O)[C@@H](/C=C/C)O[C@H]21`: the GI50 in [2] was 2.34 µM; in assay [3], 1.3 µM; in assay [4], 3.23 µM; in assay [5] it was 6.17 µM; in assay [6], 25.6 µM; in assay [7] it was 2.45 µM. Besides, the GI50 in assay [8] is 13.6 µM; in [9] it was 24.1 µM; in assay [10], 16.8 µM. The TGI in assay [2] amounted to 8.01 µM; in assay [3] it was 3.94 µM; in assay [4] it was 8.12 µM; in [5], 13.9 µM; in assay [6], 63.7 µM; in [7], 13.1 µM. For the same compound, the TGI is 35 µM in assay [8], more than 82.5 µM in [9] and more than 100 µM in assay [10].
On to `Cc1c(Cl)cccc1NC1=C(Cl)C(=O)N(Cc2ccccc2)C1=O`, for which the GI50 in assay [1] was 11.7 µM; in [2] it was 1.29 µM; in [3] it was 10.4 µM; in [4], 10.2 µM; in assay [5], 12.1 µM; in [6], 11 µM. Further, the GI50 in assay [7] is 1.47 µM; in [8] it was 17.6 µM; in [9], 6.88 µM. Moreover, the TGI in assay [1] turned out to be 24.8 µM; in assay [2], 8.92 µM; in assay [3], 22.1 µM; in assay [4], 22 µM; in [5], 38.4 µM; in assay [6] it was 30.2 µM. Further, the TGI turned out to be 15.2 µM in assay [7], 31.5 µM in [8] and 27 µM in assay [9].
As for `Cc1ccc(Sc2ccc(C)cc2[N+](=O)[O-])c([N+](=O)[O-])c1`, the TGI in assay [1], in assay [2], in assay [3], in assay [4], in assay [5] and in [6] was more than 100 µM in each case. Further, the TGI in assay [7], in assay [8] and in assay [9] was more than 100 µM in each case.
Take `CC1CCC(C(C)C)C(O[C@@H]2OC(=O)C[C@@H]2Sc2ccccc2)C1` (some centres not stated): the TGI in assay [1] was found to be 74.7 µM; in assay [2] it was 41.7 µM; in [3], 74 µM; in assay [4], 59.3 µM; in [6], 69.5 µM; in assay [7], 28.8 µM. Moreover, the TGI is 65.5 µM in assay [8] and more than 100 µM in assay [9].
For the compound `CCCOC(=O)CCn1c(SC)nc2[nH]cc(-c3ccccc3)c2c1=O`, the GI50 in assay [1] is 27.9 µM; in assay [2], 22.2 µM; in [3], 15.4 µM; in assay [4] it was 15.6 µM; in assay [5], 18.9 µM; in [6], 13.4 µM. In addition, the GI50 in assay [7] is 19.9 µM; in assay [8], more than 100 µM; in assay [9], 14.5 µM. For the same compound, the TGI is 87.9 µM in [1]; 77.2 µM in [2]; 41 µM in [3]; more than 100 µM in [4]; 61.2 µM in assay [5]; more than 100 µM in [6]. The TGI in assay [7] was 54.1 µM; in assay [8], more than 100 µM; in [9], more than 100 µM.
As to `C=C1CCc2occ(C)c2C2C1C1=C(CC(C)C1=O)C1OC12C` (configuration not stated), the TGI in [1], in [2], in [3], in assay [4], in [5] and in assay [6] was more than 100 µM in each case. Besides, the TGI in assay [7], in assay [8] and in assay [9] was more than 100 µM throughout.
Turning to `O=C1CCC2(c3ccccc3)Nc3ncccc3N12` (configuration not stated), the TGI in assay [1], in assay [2], in [4], in assay [5], in assay [6] and in assay [7] was more than 100 µM in each case. The TGI in [8] and in [9] was more than 100 µM each time.
As to `C=C1CCC2[C@@H](CCC3[C@]2(C)CCC[C@]3(C)C(=O)OC)C1CCO` (some centres not stated), the TGI in assay [1] is 30.6 µM; in [2], 29.4 µM; in [3], 19.2 µM; in assay [4], 26.5 µM; in assay [5], 32.1 µM; in assay [6] it was 37.2 µM. The TGI worked out at 26 µM in assay [7], 33.2 µM in assay [8] and 29.1 µM in assay [9].
Turning to `CCOC(=O)c1nc(Nc2ccc(Cl)cc2)c2ccccc2n1`, the GI50 in assay [2] was 9.3 µM; in [3], 25.1 µM; in assay [4], 12.4 µM; in [6], 9.44 µM; in assay [7], 6.11 µM; in assay [8] it was 10.7 µM. Further, the GI50 is 10.1 µM in assay [9] and 8.87 µM in [10]. The TGI is 19.2 µM in [2]; more than 50 µM in assay [3]; 30.6 µM in assay [4]; 23.7 µM in assay [6]; 13.2 µM in assay [7]; 22.3 µM in assay [8]. The TGI is 25.1 µM in assay [9] and more than 50 µM in assay [10].
Turning to `CC(=O)NC1CC2Oc3ccc(C)cc3C(C)(O2)C1O` (configuration not stated), the TGI in [2], in assay [3], in [4], in [5], in assay [6] and in assay [7] was more than 100 µM in each case.
On to `C[C@@H](NC1CCC[C@H]1O)c1ccccc1` (some centres not stated), for which the TGI in assay [2], in assay [3], in [4], in assay [5], in assay [6] and in [7] was more than 100 µM in each case. The same compound had a TGI in assay [8] of more than 100 µM.
`C/C=C/C=C/CCCCCCCCCCCCCC1(OC)C=CC(CC(=O)OC)OO1` (configuration not stated): the figures for the GI50 in assay [2] and in assay [7] were 6 µM and 6.7 µM, respectively. Besides, the TGI in assay [2] was 16.7 µM; in assay [3], 21.7 µM; in assay [4], 28.6 µM; in [6], 29.4 µM; in assay [7], 20.6 µM; in assay [9], 34 µM. The TGI in assay [10] was 7.13 µM.
`Cc1ccc2c(c1)C(=O)c1c-2n(CCCBr)c(=O)c2cc([N+](=O)[O-])ccc12`: the GI50 in assay [1] was 51.7 µM; in assay [2], 23.3 µM; in assay [3] it was 18.7 µM; in [4] it was 45.8 µM; in [5], 96.9 µM; in assay [6] it was 6.43 µM. Moreover, the GI50 was 71.1 µM in [7], more than 100 µM in assay [8] and 46.9 µM in [9]. Besides, the TGI in assay [1], in [2], in [3], in assay [4], in [5] and in assay [6] was more than 100 µM in each case. Further, the TGI in [7], in assay [8] and in [9] was more than 100 µM each time.
For `Cc1cn2c(/C=N/Nc3ccccn3)c(-c3ccc(Cl)c([N+](=O)[O-])c3)nc2s1`, the GI50 was 6.89 µM in assay [2]; 8.56 µM in assay [3]; 10.8 µM in assay [4]; 5.3 µM in assay [6]; 11 µM in assay [7]; 11.8 µM in [8]. Besides, the GI50 was 11.6 µM in assay [9] and 1.86 µM in assay [10]. Moreover, the TGI in assay [2] was 15.5 µM; in assay [3], 18.4 µM; in [4], 23 µM; in assay [6], 22.3 µM; in assay [7], 27.3 µM; in [8], 39.5 µM. For the same compound, the TGI in [9] turned out to be 31.7 µM; in [10] it was 10.6 µM.
For the compound `Nc1c(C(=O)Nc2ccccc2)sc2nc3c(cc12)CN(Cc1ccccc1)CC3`, the GI50 in assay [2] is 5.5 µM; in assay [3], 11 µM; in assay [4] it was 30.8 µM; in assay [5], 4.91 µM; in assay [6], 7.51 µM; in assay [7], 11.4 µM. The values for the GI50 in [8], in [9] and in assay [10] were more than 100 µM, 5.62 µM and 13.1 µM, respectively. Further, the TGI in assay [2], in assay [3], in assay [4], in assay [5], in [6] and in [7] was more than 100 µM in each case. Moreover, the TGI in assay [8], in assay [9] and in [10] was more than 100 µM in each case.
Turning to `CCC(=O)N(O)C(C)(C)C`, the TGI in assay [2], in assay [3], in [4], in [5], in assay [6] and in assay [7] was more than 100 µM in each case. In addition, the TGI in assay [8], in assay [9] and in assay [10] was more than 100 µM throughout.
As to `C=CCNC(=O)NCCCC(NC(C)=O)C(=O)NCc1ccccc1` (configuration not stated), the TGI in assay [1], in assay [2], in assay [4], in assay [5], in assay [6] and in assay [7] was more than 100 µM in each case. The TGI in assay [8] and in assay [9] was more than 100 µM each time.
On to `CCCCNC(=O)NS(=O)(=O)c1ccc(N2N=C(c3cc(C)ccc3C)CC2c2cc(OC)c(OC)c(OC)c2)cc1` (configuration not stated), for which the GI50 was 2.31 µM in assay [1]; 3.69 µM in [2]; 2.14 µM in [4]; 3.29 µM in assay [5]; 2.46 µM in assay [6]; 2.07 µM in [7]. In addition, the GI50 in assay [8] was 3.39 µM; in assay [9] it was 3.16 µM. Moreover, the TGI in assay [1] came out at 6.01 µM; in assay [2] it was 12.5 µM; in assay [4] it was 5.97 µM; in assay [5], 13 µM; in assay [6], 5.96 µM; in assay [7], 3.99 µM. Further, the TGI in assay [8] came out at 11.9 µM; in [9] it was 11.7 µM.
Consider `CCC1CCc2c(OC)ccc(OCC(=O)O)c2C1=O` (configuration not stated), for which the TGI in assay [2], in assay [4], in assay [5], in assay [7], in [8] and in assay [9] was more than 100 µM throughout. In addition, the TGI in assay [10] is more than 100 µM.
Take `COC(=O)c1cc(-c2cccn2C)c2c(c1C(=O)OC)c1ccccc1n2C`: the TGI in assay [2], in assay [4], in assay [6], in assay [7] and in [10] was more than 100 µM throughout.
`CCCC(Sc1ccccc1)P(=O)(c1ccccc1)c1ccccc1` (configuration not stated): the TGI in [1] was more than 100 µM; in assay [2], 61.4 µM; in assay [3], more than 100 µM; in [4] it was more than 100 µM; in assay [6] it was more than 100 µM; in [7], more than 100 µM. Besides, the TGI in assay [9] was more than 100 µM; in assay [10] it was 66.4 µM.
In the case of `C=CCC(OCCOCC)c1cc(OCCOCC)ccc1OC` (configuration not stated), the TGI in [2], in assay [4], in assay [5], in assay [6], in [7] and in assay [8] was more than 100 µM throughout. This compound yielded a TGI in assay [9] of more than 100 µM.
With `CCOc1ccccc1/C=N\N=C(\N)N/N=C/c1ccccc1OCC`, the GI50 in assay [1] is 2.42 µM; in assay [2], 3.82 µM; in assay [3], 3.12 µM; in [5], 5.55 µM; in assay [6] it was 3.16 µM; in assay [7] it was 1.69 µM. In addition, the GI50 in [9] is 3.11 µM. Moreover, the TGI in assay [1] was more than 100 µM; in assay [2] it was more than 100 µM; in [3], more than 100 µM; in [5] it was more than 100 µM; in assay [6], more than 100 µM; in assay [7], 4.48 µM. Also, in [9], the TGI was more than 100 µM.
As to `COc1cc(/C=C/C(=O)c2sc(NNC(C)=O)nc2C)ccc1O`, the TGI in assay [1], in [2], in assay [5], in assay [6], in [7] and in assay [8] was more than 100 µM in each case. The TGI in assay [9] was more than 100 µM.
